Results as given in patent publication US20240400551A1, “NEK7 INHIBITORS” (HALIA THERAPEUTICS, INC., priority 2021, published 2024).

System: IL-1β release from THP-1 cells
Test: IL-1β release assay
Type: cell-based
Details: Homo sapiens; PMA-treated THP-1 cells, 250 ng/mL LPS then 20 μM nigericin; cleaved IL-1β in media
Method: Approximately 1.5 million THP-1 cells were plated in each well of a 6-well TC plate and incubated with 40 nM PMA in RPMI (10% FBS, 1% Penstrep) for 24 hours. The media was then removed and cells were rested in RPMI (10% FBS, 1% Penstrep) for 24 hours after which time the media was removed and cells were pre-treated for 2 hours with various concentrations of compounds of interest (typically serial 3-fold dilution in RPMI+5% FBS, concentrations ranging from 1 μM to 0.5 nM) in RPMI (5% FBS). The media was again removed and cells were incubated with 250 ng/mL LPS and compounds of interest (concentrations as above) in RMPI (5% FBS) for 2 hours. The media was removed for a last time and cells were incubated with 20 μM nigericin and compounds of interest (concentrations as above) in Opti-MEM for 30 minutes. Cell media was then collected and the amount of cleaved IL-1β was determined using a JESS instrument (Protein Simple) and standard protocols. Cleaved Il-1β antibody was obtained from Cell Signaling (catalogue #83186S) and was used at 1:20 dilution in antibody diluent 2. Protein Simple 1× anti-Rabbit HRP secondary antibody was used along with Protein Simple luminol and peroxide for chemiluminescent detection. Primary antibody incubation time was increased from 30 minutes to 60 minutes.

IC50: > 1000 nM
SMILES: O=C(Nc1ccc(Oc2ccnc3[nH]cc(Cl)c23)cc1F)Nc1cc(C2CC2)nn1-c1ccccc1 [Compound I-11, 1-(4-((3-chloro-1H-pyrrolo[2,3-b]pyridin-4-yl)oxy)-2-fluorophenyl)-3-(3-cyclopropyl-1-phenyl-1H-pyrazol-5-yl)urea]
